Counter-ions that a name gives are not always drawn.
Experiments:
Experiment in all cases: biochemical
ZmDRIK1-K217-P492 = target: T1, ZmDRIK1-K217-P492 (Zea mays, UniProt C0P4K9); conditions: read-out: dTm B, sheet ZmDRIK1-K217-P492;; DSF, Boltzmann fit, 0.1% DMSO
T1 construct: kinase domain, K217-P492
T1 sequence (C0P4K9 1-514): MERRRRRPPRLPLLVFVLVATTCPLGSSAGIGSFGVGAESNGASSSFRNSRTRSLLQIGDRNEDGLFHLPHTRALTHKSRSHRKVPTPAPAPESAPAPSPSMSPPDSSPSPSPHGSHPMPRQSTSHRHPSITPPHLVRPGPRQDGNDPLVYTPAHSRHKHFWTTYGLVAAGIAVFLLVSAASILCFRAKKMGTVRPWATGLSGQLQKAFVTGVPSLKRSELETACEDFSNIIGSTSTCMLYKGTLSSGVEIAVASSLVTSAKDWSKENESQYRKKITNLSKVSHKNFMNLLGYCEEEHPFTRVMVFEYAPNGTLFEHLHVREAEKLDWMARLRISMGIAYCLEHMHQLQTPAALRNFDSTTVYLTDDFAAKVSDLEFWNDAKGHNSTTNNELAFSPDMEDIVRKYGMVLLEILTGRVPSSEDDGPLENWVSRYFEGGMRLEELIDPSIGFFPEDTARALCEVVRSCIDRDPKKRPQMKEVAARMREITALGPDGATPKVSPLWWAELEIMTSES

ZmDRIK1-R187-P492 = target: T2, ZmDRIK1-R187-P492 (Zea mays, UniProt C0P4K9); conditions: read-out: dTm B, DSF, Boltzmann fit, 0.1% DMSO
T2 construct: kinase domain, R187-P492
T2 sequence (C0P4K9 1-514): T1 sequence (C0P4K9 1-514)

[1] = target: T3, ZmDRIK1 (DROUGHT RESPONSIVE INACTIVE KINASE 1), kinase domain (Zea mays, UniProt C0P4K9); conditions: read-out: dTm B, sheet ZmDRIK1-R187-S514;; DSF, Boltzmann fit, 0.1% DMSO
T3 construct: gene ZEAMMB73_Zm00001d028770; ZmDRIK1-KD R187-S514 (kinase domain)
T3 sequence (C0P4K9 187-514): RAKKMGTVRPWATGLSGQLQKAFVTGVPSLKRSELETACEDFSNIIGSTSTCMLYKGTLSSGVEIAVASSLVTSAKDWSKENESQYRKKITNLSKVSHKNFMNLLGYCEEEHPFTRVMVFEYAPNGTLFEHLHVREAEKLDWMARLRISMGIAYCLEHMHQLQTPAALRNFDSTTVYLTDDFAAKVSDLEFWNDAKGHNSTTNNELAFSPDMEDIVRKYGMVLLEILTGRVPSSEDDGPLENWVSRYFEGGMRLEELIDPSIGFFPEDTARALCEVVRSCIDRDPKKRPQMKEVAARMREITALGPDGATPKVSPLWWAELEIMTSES

ZmDRIK1-K217-S514 = target: T4, ZmDRIK1-K217-S514 (Zea mays, UniProt C0P4K9); conditions: read-out: dTm B, sheet ZmDRIK1-K217-S514;; DSF, Boltzmann fit, 0.1% DMSO
T4 construct: kinase domain, K217-S514
T4 sequence (C0P4K9 1-514): T1 sequence (C0P4K9 1-514)

CC(C)(C)n1nc(-c2ccc(Cl)cc2)c2c(N)ncnc21 [PP2]
ΔTm at 10 µM (ZmDRIK1-K217-P492): -1.25 °C
ΔTm at 10 µM (ZmDRIK1-R187-P492): -0.394 °C
ΔTm at 10 µM [1]: -0.713 °C
ΔTm at 10 µM (ZmDRIK1-K217-S514): -0.458 °C

CCOc1cc(N2CCC(O)CC2)ccc1Nc1ncc2c(n1)N(C)c1ccccc1C(=O)N2C [XMD8-92]
ΔTm at 10 µM (ZmDRIK1-K217-P492): -1.16 °C
ΔTm at 10 µM (ZmDRIK1-R187-P492): -0.38 °C
ΔTm at 10 µM [1]: -0.666 °C
ΔTm at 10 µM (ZmDRIK1-K217-S514): -0.663 °C

Cc1ncc(-c2ccnc(Nc3ccc(S(C)(=O)=O)cc3)n2)n1C(C)C [AZD5438]
ΔTm at 10 µM (ZmDRIK1-K217-P492): -1.24 °C
ΔTm at 10 µM (ZmDRIK1-R187-P492): -0.417 °C
ΔTm at 10 µM [1]: -0.576 °C
ΔTm at 10 µM (ZmDRIK1-K217-S514): -0.394 °C

O=C(NCCO)c1cccc(-c2cc(Nc3ccc(OC(F)(F)F)cc3)ncn2)c1 [GNF-5]
ΔTm at 10 µM (ZmDRIK1-K217-P492): -0.507 °C
ΔTm at 10 µM (ZmDRIK1-R187-P492): 1.16 °C
ΔTm at 10 µM [1]: -0.0553 °C
ΔTm at 10 µM (ZmDRIK1-K217-S514): 0.543 °C

CN1CCN(CCOc2cc(OC3CCOCC3)c3c(Nc4c(Cl)ccc5c4OCO5)ncnc3c2)CC1 [Saracatinib (AZD0530)]
ΔTm at 10 µM (ZmDRIK1-K217-P492): -1.11 °C
ΔTm at 10 µM (ZmDRIK1-R187-P492): -0.196 °C
ΔTm at 10 µM [1]: -0.646 °C
ΔTm at 10 µM (ZmDRIK1-K217-S514): -0.253 °C

COc1ccc(S(=O)(=O)N(CCO)c2ccccc2CN(C)C/C=C/c2ccc(Cl)cc2)cc1 [KN-93 Phosphate]
ΔTm at 10 µM (ZmDRIK1-K217-P492): -4.4 °C
ΔTm at 10 µM (ZmDRIK1-R187-P492): -1.06 °C
ΔTm at 10 µM [1]: -0.375 °C
ΔTm at 10 µM (ZmDRIK1-K217-S514): -0.811 °C

CNC(=O)c1cc(Oc2ccc(NC(=O)Nc3cc(C(C)(C)C)nn3-c3ccc4ncccc4c3)c(F)c2)ccn1 [DCC-2036 (Rebastinib)]
ΔTm at 10 µM (ZmDRIK1-K217-P492): -1.25 °C
ΔTm at 10 µM (ZmDRIK1-R187-P492): -0.261 °C
ΔTm at 10 µM [1]: -1.41 °C
ΔTm at 10 µM (ZmDRIK1-K217-S514): -0.422 °C

Cn1c(=O)c(F)c(Nc2ccc(I)cc2F)c2c(=O)n(C[C@@H](O)CO)cnc21 [TAK-733]
ΔTm at 10 µM (ZmDRIK1-K217-P492): -1.32 °C
ΔTm at 10 µM (ZmDRIK1-R187-P492): -0.375 °C
ΔTm at 10 µM [1]: -0.814 °C
ΔTm at 10 µM (ZmDRIK1-K217-S514): -0.514 °C

O=C(Nc1cc(C(F)(F)F)cc(C(F)(F)F)c1)c1cc(Cl)ccc1O [IMD 0354]
ΔTm at 10 µM (ZmDRIK1-K217-P492): 0.526 °C
ΔTm at 10 µM (ZmDRIK1-R187-P492): 0.639 °C
ΔTm at 10 µM [1]: -0.239 °C
ΔTm at 10 µM (ZmDRIK1-K217-S514): 1.2 °C

CCS(=O)(=O)c1cccc(-c2cc(C(=O)NC3CCN(C)CC3)c(C)c3[nH]c4ncc(C)cc4c23)c1 [TAK-901]
ΔTm at 10 µM (ZmDRIK1-K217-P492): -0.353 °C
ΔTm at 10 µM (ZmDRIK1-R187-P492): -0.0329 °C
ΔTm at 10 µM [1]: -0.544 °C
ΔTm at 10 µM (ZmDRIK1-K217-S514): -0.0934 °C

N[C@@H]1CCCN(c2c(/C=C3\SC(=O)NC3=O)cccc2-c2ccccc2)C1 [AZD1208]
ΔTm at 10 µM (ZmDRIK1-K217-P492): -0.752 °C
ΔTm at 10 µM (ZmDRIK1-R187-P492): -0.181 °C
ΔTm at 10 µM [1]: -0.564 °C
ΔTm at 10 µM (ZmDRIK1-K217-S514): -0.249 °C

O=C(O)c1ccc(-c2c[nH]c3ncc(-c4ccccc4)cc23)cc1C1CCCC1 [GSK650394]
ΔTm at 10 µM (ZmDRIK1-K217-P492): -1.03 °C
ΔTm at 10 µM (ZmDRIK1-R187-P492): -0.485 °C
ΔTm at 10 µM [1]: -0.785 °C
ΔTm at 10 µM (ZmDRIK1-K217-S514): -0.353 °C

O=C(c1cccc(Cl)c1F)N1CCN(Cc2cccc(Nc3nccs3)n2)CC1 [MK-8745]
ΔTm at 10 µM (ZmDRIK1-K217-P492): 0.174 °C
ΔTm at 10 µM (ZmDRIK1-R187-P492): 0.983 °C
ΔTm at 10 µM [1]: 0.487 °C
ΔTm at 10 µM (ZmDRIK1-K217-S514): 0.891 °C

CN(C)C/C=C/C(=O)Nc1cc2c(Nc3ccc(F)c(Cl)c3)ncnc2cc1O[C@H]1CCOC1 [Afatinib (BIBW2992)]
ΔTm at 10 µM (ZmDRIK1-K217-P492): -1.3 °C
ΔTm at 10 µM (ZmDRIK1-R187-P492): -0.346 °C
ΔTm at 10 µM [1]: -0.728 °C
ΔTm at 10 µM (ZmDRIK1-K217-S514): -0.623 °C

CN1CCCN(C(=O)c2cccc(-c3ccc(/C=C4/C(=O)Nc5ccc(Cl)cc54)o3)c2)CC1 [CX-6258 HCl]
ΔTm at 10 µM (ZmDRIK1-K217-P492): -1.21 °C
ΔTm at 10 µM (ZmDRIK1-R187-P492): -0.49 °C
ΔTm at 10 µM [1]: -1.14 °C
ΔTm at 10 µM (ZmDRIK1-K217-S514): -0.341 °C

NC(=O)c1ccc(N(C(N)=O)c2c(F)cccc2F)nc1-c1ccc(F)cc1F [VX-702]
ΔTm at 10 µM (ZmDRIK1-K217-P492): -0.792 °C
ΔTm at 10 µM (ZmDRIK1-R187-P492): -0.499 °C
ΔTm at 10 µM [1]: -0.444 °C
ΔTm at 10 µM (ZmDRIK1-K217-S514): -0.374 °C

O=c1cc(-c2cccc3c2Sc2ccccc2S3)oc(N2CCOCC2)c1 [KU-55933 (ATM Kinase Inhibitor)]
ΔTm at 10 µM (ZmDRIK1-K217-P492): -1.32 °C
ΔTm at 10 µM (ZmDRIK1-R187-P492): -0.282 °C
ΔTm at 10 µM [1]: -0.601 °C
ΔTm at 10 µM (ZmDRIK1-K217-S514): -0.342 °C

COCC(=O)NC/C=C/c1ccc2ncnc(Nc3ccc(Oc4ccc(C)nc4)c(C)c3)c2c1 [CP-724714]
ΔTm at 10 µM (ZmDRIK1-K217-P492): -1.14 °C
ΔTm at 10 µM (ZmDRIK1-R187-P492): -0.193 °C
ΔTm at 10 µM [1]: -0.904 °C
ΔTm at 10 µM (ZmDRIK1-K217-S514): -0.357 °C

FC(F)(F)c1ccc(/C=C/c2nc(COc3ccc(CCCCn4ccnn4)cc3)co2)cc1 [Mubritinib (TAK 165)]
ΔTm at 10 µM (ZmDRIK1-K217-P492): -0.803 °C
ΔTm at 10 µM (ZmDRIK1-R187-P492): -0.156 °C
ΔTm at 10 µM [1]: -0.964 °C
ΔTm at 10 µM (ZmDRIK1-K217-S514): -0.334 °C

— PMC7158045 (BMC Plant Biology, 2020)
